The target of assay [1] is T1, Type-2 angiotensin II receptor (Rattus norvegicus, UniProt P35351).
T1 sequence (P35351 whole entry): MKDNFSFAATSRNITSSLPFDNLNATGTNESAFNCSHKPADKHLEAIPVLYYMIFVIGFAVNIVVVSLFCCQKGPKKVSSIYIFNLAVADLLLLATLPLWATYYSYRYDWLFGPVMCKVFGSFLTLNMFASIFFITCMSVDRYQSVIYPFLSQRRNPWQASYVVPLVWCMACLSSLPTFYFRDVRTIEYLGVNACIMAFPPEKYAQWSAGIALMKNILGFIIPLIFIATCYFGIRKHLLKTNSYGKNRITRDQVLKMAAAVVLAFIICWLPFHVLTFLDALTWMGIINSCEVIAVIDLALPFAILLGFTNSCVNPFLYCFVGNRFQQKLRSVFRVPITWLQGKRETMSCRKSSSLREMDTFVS
Kind of assay: Compound was evaluated for inhibition of 125I[Sar1,Ile8] aII binding to rat midbrain membrane preparation Angiotensin II receptor, type 2. In kind it is tissue-based.

Assay [2] concerns the target T2, Type-1 angiotensin II receptor (Oryctolagus cuniculus, UniProt P34976).
T2 sequence (P34976 whole entry): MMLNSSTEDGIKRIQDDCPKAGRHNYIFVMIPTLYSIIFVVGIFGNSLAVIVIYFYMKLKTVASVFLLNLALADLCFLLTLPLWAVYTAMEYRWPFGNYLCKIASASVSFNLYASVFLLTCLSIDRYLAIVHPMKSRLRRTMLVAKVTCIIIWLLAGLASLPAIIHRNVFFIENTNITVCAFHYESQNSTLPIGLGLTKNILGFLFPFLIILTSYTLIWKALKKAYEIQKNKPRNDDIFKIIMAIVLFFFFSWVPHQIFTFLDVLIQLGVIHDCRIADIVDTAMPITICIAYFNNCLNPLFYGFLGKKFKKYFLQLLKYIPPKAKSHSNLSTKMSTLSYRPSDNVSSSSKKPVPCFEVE
Put plainly: Compound was evaluated for inhibition of 125I[Sar1,Ile8] all binding to rabbit aorta Angiotensin II receptor, type 1. The format is tissue-based.

pIC50: −log10 of the molar value.

As to `CCCCOC(=O)NS(=O)(=O)c1ccc(C)cc1-c1ccc(Cn2c(CC)nc3c(C)cc(C)nc32)cc1`, the pIC50 in assay [1] was 7.06; in assay [2], 9.70.

Turning to `CCCCOC(=O)NS(=O)(=O)c1ccccc1-c1ccc(Cn2c(CC)nc3c(C)cc(C)nc32)cc1`, the pIC50 in assay [1] was 7.02; in assay [2], 9.70.

In the case of `CCCCOC(=O)NS(=O)(=O)c1ccc(CCC)cc1-c1ccc(Cn2c(CC)nc3c(C)cc(C)nc32)cc1`, the figures for the pIC50 in assay [1] and in assay [2] were 8.42 and 8.68, respectively.

For the molecule `CCCCOC(=O)NS(=O)(=O)c1ccc(CC)cc1-c1ccc(Cn2c(CC)nc3c(C)cc(C)nc32)cc1`, the figures for the pIC50 in assay [1] and in assay [2] were 7.43 and 8.85, respectively.

The record behind these values is ChEMBL document CHEMBL1159160, “L-162,389: a potent orally active angiotensin II receptor antagonist with balanced affinity to both AT1 and AT2 receptor subtypes” (Bioorg Med Chem Lett, 1996).
